13 molecules from patent US20230391752A1, “PYRROLIDINE-3-CARBOXAMIDE DERIVATIVES AND RELATED USES” (Chulalongkorn University, priority 2020, published 2023) can be followed below.

One may read the EC50 as the midpoint of the concentration-response curve. For orientation: CC50 means the concentration that lowers cell viability or growth by half.

The target in one series is T1, HBV core protein (Cp149) (Hepatitis B virus genotype D subtype ayw, UniProt P03146).
T1 construct: HBV core C-terminally truncated protein (HBV Cp149); made in house
Nature of the series: HBV capsid assembly by size exclusion chromatography (SEC). The settings on record: 50 μM compound, 15 μM Cp149, 16 hours at 21° C. The series is classed as biochemical.

The subject of series [1] is HBV. Put plainly: In vitro anti-HBV activity in HepG2.2.15 cell line (intracellular HBV DNA by qPCR at 1 μM). It counts as cell-based. The settings on record: Hepatitis B virus, 144 h; HepG2.2.15 cells, 1 μM compound, 6 days, intracellular HBV DNA as percentage compared to vehicle control (0.5% DMSO). The essentials: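 Intracellular HBV DNA was quantified by qPCR and given as percent of vehicle (0.5% DMSO), grouped into letter ranges. Stably transfected HepG2.2.15 cells had 6 days of exposure to 1 μM compound, with medium and compound renewed after day 3.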

The nature of series [2]: Pharmacokinetic study in rats. The settings on record: for F (%) Rat: PO 0.3 to 2.0 mg/kg; for clearance / Vd / half-life: male, Sprague-Dawley, plasma, rat; for clearance / Vd: IV 0.2 to 0.5 mg/kg; for clearance: read-out: CL (mL/min/kg) Rat; for Vd: read-out: Vd,ss (L/kg) Rat; for half-life: read-out: t1/2 (h) Rat (converted). It counts as in vivo, male Sprague-Dawley rats. As to the method: Test compounds were administered to male Sprague-Dawley rats and male Beagle dogs by oral (PO) and intravenous (TV) administration. For TV dosing, test compounds were dosed at 0.2 to 0.5 mg/kg using a formulation of 10% dimethyl sulfoxide in 20% hydroxypropyl beta-cyclodextrin solution via IV bolus. For PO dosing, test compounds were dosed at 0.3 to 2.0 mg/kg using a formulation of 40% polyethylene glycol 400 in water via oral gavage. Blood samples were collected at pre-dose and various time points up to 24 hours post-dose, and centrifuged to obtain plasma samples. The plasma concentrations of test compounds were quantified by LC-MS/MS methods. The relevant pharmacokinetic parameters (Table D) were calculated via non-compartmental analysis using WinNonlin (Phoenix™, version 8.3).

The subject of series [3] is HBV. Nature of the series: Effect on intrahepatic HBV DNA levels in HepG2.2.15 cells (EC50). It counts as cell-based. The settings on record: Hepatitis B virus, 144 h, 6 days, intrahepatic HBV DNA by qPCR, read-out: Anti-HBV DNA (EC50). The protocol:
HepG2.2.15 cells were treated with compounds, at various concentrations in 10% FCS containing medium, at 37° C. for three days. After that the medium was removed and fresh medium containing the compound was added to the cells for another 3 days. After 6 days of treatment, intrahepatic HBV DNA from cell lysates were isolated. Then qPCR reaction of DNA was performed to measure total HBV DNA levels using specific primer set. The fifty-percent effective concentrations (EC50) for HBV DNA inhibition, relative to no drug controls, was determined using nonlinear fitting curve model. EC50 ranges for HBV DNA inhibition were as follows: A>0.3 μM, B=0.05-0.3 μM, C<0.05 μM (Table B).
A general note: Quantitative PCR measures a nucleic acid by following its amplification.

Series [4] can be described thus: Cytotoxicity (MTT) in HepG2.2.15 cells. It counts as cell-based. The settings on record: human, 6 days treatment, read-out: HepG2.1.15 cytotoxicity (CC50). As to the method:
HepG2.2.15 cells were seeded onto 96-well culture plate and allowed to adhere for 24 hours. The cells were treated with various concentrations of the compounds for 6 days. After treatment, the culture media were discarded and further incubated with serum-free media containing […] of 3-(4,5-dimethylthiazol-2-yl)-2,5-diphenyl tetrazolium bromide (MTT) for 2 hour. The resulting formazan crystals were completely dissolved in dimethyl sulfoxide (DMSO), and then measured absorbance at 570 nm using microplate reader. The concentrations of compounds producing 50% cell death (CC50) were determined from a fitting of concentration-response curve (% cell viability versus concentration) to a four-parameter equation.

T1 sequence (P03146 1-149): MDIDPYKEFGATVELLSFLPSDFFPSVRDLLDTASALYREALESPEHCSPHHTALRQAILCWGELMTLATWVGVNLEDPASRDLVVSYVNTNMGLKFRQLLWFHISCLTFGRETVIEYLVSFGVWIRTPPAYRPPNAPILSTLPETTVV

For `Cc1ncnc(C)c1-c1ccc(C(=O)N2CC[C@H](C(=O)Nc3ccc(F)c(Cl)c3)C2)[nH]1` [Example 99, (S)—N-(3-chloro-4-fluorophenyl)-1-(5-(4,6-dimethylpyrimidin-5-yl)-1H-pyrrole-2-carbonyl) pyrrolidine-3-carboxamide], on HBV core protein (Cp149), the “Size of induced capsids based on SEC retention times” value (“Size of induced capsids based” below) is “induced capsids similar in size to NVR 3-778”. This molecule showed an activity at 1 µM in the series with HBV [1] of less than 45%. In series [2], the “F (%) Rat” value is 36%, the clearance came out at 38.4 mL/min/kg, the Vd turned out to be 2.34 L/kg and the half-life was 1 h. The EC50 in the series on HBV [3] was less than 0.05 µM. Also, the CC50 at 6 days in series [4] is 10 to 25 µM.
Take `C[C@H]1[C@@H](C(=O)Nc2ccc(F)c(C#N)c2)CCN1C(=O)c1ccc(C2CC2)[nH]1` [Example 74, (2S,3S)—N-(3-cyano-4-fluorophenyl)-1-(5-cyclopropyl-1H-pyrrole-2-carbonyl)-2-methylpyrrolidine-3-carboxamide]: the “Size of induced capsids based” value on HBV core protein (Cp149) is given as “induced capsids similar in size to NVR 3-778”. The activity at 1 µM in the series on HBV [1] is less than 45%. In series [2], the “F (%) Rat” value is recorded as roughly 100%, the clearance is 3 mL/min/kg, the Vd amounted to 0.72 L/kg and the half-life is 3.4 h. In the series with HBV [3], the EC50 is 0.05 to 0.3 µM. Besides, the CC50 at 6 days in series [4] lay within 10 to 25 µM.
With `Cc1cc(NC(=O)[C@H]2CCN(C(=O)c3[nH]c4ccccc4c3Cl)C2)ccc1F` [Example 2, (S)-1-(3-chloro-1H-indole-2-carbonyl)-N-(4-fluoro-3-methylphenyl)pyrrolidine-3-carboxamide], the “Size of induced capsids based” value at HBV core protein (Cp149) is “capsid retention times between BAY 41-4109 and NVR 3-778”. This molecule also came in with an activity at 1 µM with HBV [1] of less than 45%. Also, the 50% effective concentration (EC50) with HBV [3] was less than 0.05 µM. Also, the CC50 at 6 days in series [4] is greater than 25 µM.
Turning to `Cc1ncnc(C)c1-c1ccc(C(=O)N2CC[C@H](C(=O)Nc3cc(F)c(F)c(F)c3)[C@@H]2C)[nH]1` [Example 111, (2S,3S)-1-(5-(4,6-dimethylpyrimidin-5-yl)-1H-pyrrole-2-carbonyl)-2-methyl-N-(3,4,5-trifluorophenyl)pyrrolidine-3-carboxamide], the “Size of induced capsids based” value at HBV core protein (Cp149) is “induced capsids similar in size to NVR 3-778”. Moreover, in the series with HBV [1], the activity at 1 µM is less than 45%. Also, in the series with HBV [3], the concentration giving a half-maximal response (EC50) is less than 0.05 µM. The CC50 at 6 days in series [4] was less than 10 µM.
As for `Cc1c(-c2ccc(C(=O)N3CC[C@H](C(=O)Nc4cc(F)c(F)c(F)c4)C3)[nH]2)ccc2[nH]ncc12` [Example 128, (S)-1-(5-(4-methyl-1H-indazol-5-yl)-1H-pyrrole-2-carbonyl)-N-(3,4,5-trifluorophenyl) pyrrolidine-3-carboxamide], the “Size of induced capsids based” value at HBV core protein (Cp149) is listed as “induced capsids similar in size to NVR 3-778”. Also, the activity at 1 µM in the series with HBV [1] is less than 45%. The concentration for a half-maximal effect (EC50) in the series on HBV [3] is 0.05 to 0.3 µM. The half-maximal cytotoxic concentration (CC50) at 6 days in series [4] was in the range of 10 to 25 µM.
The like results for `Cc1cc2[nH]ncc2cc1-c1ccc(C(=O)N2CC[C@H](C(=O)Nc3ccc(F)c(C#N)c3)C2)[nH]1` [Example 123, (S)—N-(3-cyano-4-fluorophenyl)-1-(5-(6-methyl-1H-indazol-5-yl)-1H-pyrrole-2-carbonyl) pyrrolidine-3-carboxamide] were, in that order, “induced capsids similar in size to NVR 3-778”, less than 45%, 0.05 to 0.3 µM and 10 to 25 µM.
Take `Cc1[nH]nc(C(F)(F)F)c1-c1ccc(C(=O)N2CC[C@H](C(=O)Nc3ccc(F)c(C#N)c3)[C@@H]2C)[nH]1` [Example 113, (2S,3S)—N-(3-cyano-4-fluorophenyl)-2-methyl-1-(5-(5-methyl-3-(trifluoromethyl)-1H-pyrazol-4-yl)-1H-pyrrole-2-carbonyl)pyrrolidine-3-carboxamide]: at HBV core protein (Cp149), the “Size of induced capsids based” value is listed as “induced capsids similar in size to NVR 3-778”. In the series with HBV [1], this molecule registered an activity at 1 µM of less than 45%. Besides, the EC50 in the series on HBV [3] was less than 0.05 µM. In addition, the CC50 at 6 days in series [4] is 10 to 25 µM.
For `Cc1cc(NC(=O)[C@H]2CCN(C(=O)c3ccc(-c4c(C)n[nH]c4C)[nH]3)C2)ccc1F` [Example 101, (S)-1-(5-(3,5-dimethyl-1H-pyrazol-4-yl)-1H-pyrrole-2-carbonyl)-N-(4-fluoro-3-methylphenyl)pyrrolidine-3-carboxamide] the same measures were “induced capsids similar in size to NVR 3-778”, less than 45%, 0.05 to 0.3 µM and greater than 25 µM.
In the case of `Cc1cc(NC(=O)[C@H]2CCN(C(=O)c3ccc(-c4c(C(F)(F)F)n[nH]c4C)[nH]3)C2)ccc1F` [Example 114], at HBV core protein (Cp149), the “Size of induced capsids based” value is “induced capsids similar in size to NVR 3-778”. The activity at 1 µM in the series with HBV [1] was less than 45%. The 50% effective concentration (EC50) in the series with HBV [3] was less than 0.05 µM. Moreover, the CC50 at 6 days in series [4] is 10 to 25 µM.
The like results for `Cc1ccc(C(=O)N2CC[C@H](C(=O)Nc3cc(F)c(F)c(Cl)c3)[C@@H]2C)[nH]1` [Example 20, (2S,3S)—N-(3-chloro-4,5-difluorophenyl)-2-methyl-1-(5-methyl-1H-pyrrole-2-carbonyl) pyrrolidine-3-carboxamide] were, in that order, “induced capsids similar in size to NVR 3-778”, less than 45%, greater than 0.3 µM and 10 to 25 µM.
On to `Cc1cc(NC(=O)[C@H]2CCN(C(=O)c3ccc(-c4cccnc4C#N)[nH]3)C2)ccc1F` [Example 150, (S)-1-(5-(2-cyanopyridin-3-yl)-1H-pyrrole-2-carbonyl)-N-(4-fluoro-3-methylphenyl)pyrrolidine-3-carboxamide], for which the “Size of induced capsids based” value on HBV core protein (Cp149) is recorded as “induced capsids similar in size to NVR 3-778”. The activity at 1 µM in the series with HBV [1] was less than 45%. The EC50 in the series on HBV [3] lay within 0.05 to 0.3 µM. Besides, the CC50 at 6 days in series [4] was greater than 25 µM.
With `C[C@H]1[C@@H](C(=O)Nc2cc(F)c(F)c(F)c2)CCN1C(=O)c1ccc(-c2ccnnc2)[nH]1` [Example 83, (2S,3S)-2-methyl-1-(5-(pyridazin-4-yl)-1H-pyrrole-2-carbonyl)-N-(3,4,5-trifluorophenyl)pyrrolidine-3-carboxamide], on HBV core protein (Cp149), the “Size of induced capsids based” value is listed as “induced capsids similar in size to NVR 3-778”. Besides, in the series with HBV [1], the activity at 1 µM is less than 45%. In addition, in series [2], the “F (%) Rat” value was 82%, the clearance was 0.3 mL/min/kg, the Vd was determined as 0.13 L/kg and the half-life is 5.5 h. In the series on HBV [3], the concentration giving a half-maximal response (EC50) was less than 0.05 µM. Besides, in series [4], the CC50 at 6 days was greater than 25 µM.
As for `C[C@H]1[C@@H](C(=O)Nc2ccc(F)c(F)c2)CCN1C(=O)c1ccc(-c2ccnnc2)[nH]1` [Example 110, (2S,3S)—N-(3,4-difluorophenyl)-2-methyl-1-(5-(pyridazin-4-yl)-1H-pyrrole-2-carbonyl) pyrrolidine-3-carboxamide], the “Size of induced capsids based” value on HBV core protein (Cp149) was “induced capsids similar in size to NVR 3-778”. The molecule further displayed an activity at 1 µM in the series with HBV [1] of less than 45%. The 50% effective concentration (EC50) in the series with HBV [3] lay within 0.05 to 0.3 µM. Also, in series [4], the CC50 at 6 days is greater than 25 µM.
